Measured values from patent publication US20020150621A1, “Lipid-protein-sugar particles for drug delivery” (priority 2000, published 2002).
Where two headings read alike, the source gives them in different places.

Legend:
sciatic nerve = experiment: Sciatic nerve block, thermal nociception (modified hotplate test); format: in vivo, rat; conditions: 1.5 ml of 0.5% bupivacaine (7.5 mg), n=6, rats approx. 410 g
Experimental: (§1) Prior to nerve block injections, rats were anesthetized briefly (<2 minutes) with halothane. […] A 20G needle was introduced postero-medial to the greater trochanter, pointing in an anteromedial direction (Thalhammer et al. “Neurologic evaluation of the rat during sciatic nerve block with lidocaine” Anesthesiology 82:1013-1025, 1995; incorporated herein by reference). Once bone was contacted, the needle was withdrawn 1 mm and the particle-containing solution was injected. The left leg was always used for blocks; the right served as control.
The effectiveness of block was measured at various time points, applying the methods of Thalhammer et al. (Thalhammer et al. “Neurologic evaluation of the rat during sciatic nerve block with lidocaine” Anesthesiology 82:1013-1025, 1995; […]; incorporated herein by reference).
Nociceptive block was assessed by a modified hotplate test (Masters et al. “Prolonged regional nerve blockade by controlled release of local anesthetic from a biodegradable polymer matrix” Anesthesiology 79:1-7, 1993; incorporated herein by reference). Hind paws were exposed in sequence (left then right) to a hot plate at 56° C. (Model 39D Hot Plate Analgesia Meter, IITC Inc., Woodland Hills, Calif.), and the time (latency) until paw withdrawal was measured by a stopwatch. Thermal latency is a measure of the intensity of analgesia. […]

[1] = Systemic distribution/toxicity after sciatic injection (contralateral thermal latency, deaths); format: in vivo, rat; conditions: 1.5 ml of 0.5% bupivacaine (7.5 mg), n=6
Experimental: as §1
Nociceptive block was assessed by a modified hotplate test (Masters et al. “Prolonged regional nerve blockade by controlled release of local anesthetic from a biodegradable polymer matrix” Anesthesiology 79:1-7, 1993; incorporated herein by reference). Hind paws were exposed in sequence (left then right) to a hot plate at 56° C. (Model 39D Hot Plate Analgesia Meter, IITC Inc., Woodland Hills, Calif.), and the time (latency) until paw withdrawal was measured by a stopwatch. Thermal latency is a measure of the intensity of analgesia. If the paw remained in contact for 12 seconds, it was removed by the experimenter to avoid injury to the animal or the development of hyperalgesia. This test was repeated three times for each rat at every time-point.

[2] = Median lethal dose of bupivacaine (literature); format: in vivo; conditions: in a 350 g rat
Experimental: Encapsulation improved the safety and efficacy of bupivacaine. […] For this experiment larger rats (approx. 410 g) were used than those used in the remainder of the study, in order to avoid animal death (the median lethal dose of bupivacaine in adult rats is 30±5 mg/kg (Kohane et al. “Sciatic nerve blockade in infant, adolescent, and adult rats: a comparison of ropivacaine and bupivacaine” Anesthesiology 89:1199-1208, 1998; incorporated herein by reference), or 10.5 mg in a 350 g rat). […] It was not possible to directly compare the efficacy of bupivacaine solution and 50% bupivacaine microspheres, since the dose of bupivacaine contained in 75 mg of those microspheres ([…]) is approximately three times the median lethal dose of the unencapsulated drug (Kohane et al. “Sciatic nerve blockade in infant, adolescent, and adult rats: a comparison of ropivacaine and bupivacaine” Anesthesiology 89:1199-1208, 1998). Nevertheless, it is obvious that the microspheres increased the safety of bupivacaine.

[3] = adult rats; Kohane et al. 1998; cited from earlier work

CCCCN1CCCCC1C(=O)Nc1c(C)cccc1C (stereo not shown) [bupivacaine]
duration of block (sciatic nerve): 166 ± 55 min | rats with severe signs of systemic toxicity (thermal latency=12 seconds in the uninjected leg) [1]: one of those rats | median lethal dose [2]: 10.5 mg | median lethal dose [3]: 30 ± 5 mg/kg
